Measurements: US20250282771A1, “TETRAHYDROISOQUINOLINE HETEROBIFUNCTIONAL BCL-XL DEGRADERS” (Treeline Biosciences, Inc., priority 2022, published 2025)

Target: T1, N-terminal HiBiT tagged BCL-XL (Homo sapiens, UniProt Q07817)
T1 construct: expressed in transfected cells; host or cells: HT-1080 (ATCC CCL-121) cells stably transduced with lentivirus pLV-UBC-N-HiBiT-BCL-XL-PGK-puro
Experiment: HiBiT based degradation assay
Assay type: cell-based
Settings: HT1080 cells expressing N-terminal HiBiT tagged BCL-XL, BCL-XL level normalized with DMSO control
Excerpt: Human BCL-XL protein coding open reading frame fused with N-terminal HiBiT coding sequence was synthesized from Integrated DNA Technologies (IDT). Next, N-HiBiT-BCL-XL sequence was cloned into pLV-UBC-PGK-Puro, a lentivirus plasmid purchased from Vectorbuilder, to generate pLV-UBC-N-HiBiT-BCL-XL-PGK-puro. Lentiviral particles were generated from Lenti-X™ 293T cells (Clontech) by co-transfection of pLV-UBC-N-HiBiT-BCL-XL-PGK-puro plasmids and lentiviral packaging plasmid mix (Cellecta). HT-1080 [HT1080](ATCC CCL-121) cells were infected with the lentivirus, and HT1080 cells stably integrated with the lentiviral vectors were established by incubation with […] puromycin (Thermofisher).
HT1080 cells expressing N-terminal HiBiT tagged BCL-XL were dispensed into a 384-well plate pre-spotted with compounds at varying concentrations. Three thousand cells were seeded into each well in 40 μL of RPMI 1640 media. […] After incubation, luminescence was read on a PHERAstar FSX Plate Reader (BMG). BCL-XL degradation at each indicated concentration was normalized with the DMSO control. The BCL-XL degradation curves were plotted using a four-parameter logistic model. For compounds displaying hook effects, the curve fitting was performed using the bottom point of the hook curves (i.e., the point of Ymin) as the bottom plateau to calculate EC50.

T1 sequence (Q07817 whole entry): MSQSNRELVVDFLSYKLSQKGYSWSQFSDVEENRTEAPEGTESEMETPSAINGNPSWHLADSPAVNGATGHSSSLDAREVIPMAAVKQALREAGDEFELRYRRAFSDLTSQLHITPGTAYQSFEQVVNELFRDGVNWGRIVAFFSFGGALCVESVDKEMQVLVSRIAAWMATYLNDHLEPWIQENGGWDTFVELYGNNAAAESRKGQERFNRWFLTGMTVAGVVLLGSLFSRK

SMILES | Ymin (6 h) | Ymin (24 h)
Cc1c(OCCCCCCCCCC(=O)N2CCN(c3cc4c(cc3F)C(=O)N(C3CCC(=O)NC3=O)C4=O)CC2)cccc1-c1ccc(N2CCc3cccc(C(=O)Nc4nc5ccccc5s4)c3C2)nc1C(=O)O (stereo not drawn) [Compound 102] | A (Ymin < 50%) | –
O=C1CCC(N2C(=O)c3cc(F)c(N4CCN(CCCCCCCOc5cccc(-c6ccc(N7CCc8cccc(C(=O)Nc9nc%10ccccc%10s9)c8C7)nc6C(=O)O)c5)CC4)cc3C2=O)C(=O)N1 (stereo not drawn) [Compound 103] | B (50% ≤ Ymin < 70%) | –
Cc1c(OCCCCCCCCN2CCN(c3cc4c(cc3F)C(=O)N(C3CCC(=O)NC3=O)C4=O)CC2)cccc1-c1ccc(N2CCc3cccc(C(=O)Nc4nc5ccccc5s4)c3C2)nc1C(=O)O (stereo not drawn) [Compound 108] | B (50% ≤ Ymin < 70%) | –
Cc1c(Oc2ccc(CCCN3CCN(c4cc5c(cc4F)C(=O)N(C4CCC(=O)NC4=O)C5=O)CC3)cc2)cccc1-c1ccc(N2CCc3cccc(C(=O)Nc4nc5ccccc5s4)c3C2)nc1C(=O)O (stereo not drawn) [Compound 110, 6-[8-(1,3-Benzothiazol-2-ylcarbamoyl)-3,4-dihydro-1H-isoquinolin-2-yl]-3-[3-[4-[3-[4-[2-(2,6-dioxo-3-piperidyl)-6-fluoro-1,3-dioxo-isoindolin-5-yl]piperazin-1-yl]propyl]phenoxy]-2-methyl-phenyl]pyridine-2-carboxylic acid] | B (50% ≤ Ymin < 70%) | B (50% ≤ Ymin < 70%)
Cc1c(O[C@H]2CC[C@H](CCC(=O)N3CCN(c4cc5c(cc4F)C(=O)N(C4CCC(=O)NC4=O)C5=O)CC3)CC2)cccc1-c1ccc(N2CCc3cccc(C(=O)Nc4nc5ccccc5s4)c3C2)nc1C(=O)O (stereo partly drawn) [Compound 111a, 6-(8-(benzo[d]thiazol-2-ylcarbamoyl)-3,4-dihydroisoquinolin-2(1H)-yl)-3-(3-(((1r,4r)-4-(3-(4-(2-(2,6-dioxopiperidin-3-yl)-6-fluoro-1,3-dioxoisoindolin-5-yl)piperazin-1-yl)-3-oxopropyl)cyclohexyl)oxy)-2-methylphenyl)picolinic acid] | B (50% ≤ Ymin < 70%) | B (50% ≤ Ymin < 70%)
Cc1c(O[C@H]2CC[C@H](CCCN3CCN(c4cc5c(cc4F)C(=O)N(C4CCC(=O)NC4=O)C5=O)CC3)CC2)cccc1-c1ccc(N2CCc3cccc(C(=O)Nc4nc5ccccc5s4)c3C2)nc1C(=O)O (stereo partly drawn) [Compound 112a, 6-(8-(benzo[d]thiazol-2-ylcarbamoyl)-3,4-dihydroisoquinolin-2(1H)-yl)-3-(3-(((1s,4r)-4-(3-(4-(2-(2,6-dioxopiperidin-3-yl)-6-fluoro-1,3-dioxoisoindolin-5-yl)piperazin-1-yl)propyl)cyclohexyl)oxy)-2-methylphenyl)picolinic acid] | B (50% ≤ Ymin < 70%) | C (Ymin ≥ 70%)
Cc1c(OCC2CC3(CCN(CC(=O)N4CCN(c5cc6c(cc5F)C(=O)N(C5CCC(=O)NC5=O)C6=O)CC4)CC3)C2)cccc1-c1ccc(N2CCc3cccc(C(=O)Nc4nc5ccccc5s4)c3C2)nc1C(=O)O (stereo not drawn) [Compound 113, 6-[8-(1,3-benzothiazol-2-ylcarbamoyl)-3,4-dihydro-1H-isoquinolin-2-yl]-3-[3-[[7-[2-[4-[2-(2,6-dioxo-3-piperidyl)-6-fluoro-1,3-dioxo-isoindolin-5-yl]piperazin-1-yl]-2-oxo-ethyl]-7-azaspiro[3.5]nonan-2-yl]methoxy]-2-methyl-phenyl]pyridine-2-carboxylic acid] | B (50% ≤ Ymin < 70%) | B (50% ≤ Ymin < 70%)
Cc1c(OCCCCCCN2CCN(c3cc4c(cc3F)C(=O)N(C3CCC(=O)NC3=O)C4=O)CC2)cccc1-c1ccc(N2CCc3cccc(C(=O)Nc4nc5ccccc5s4)c3C2)nc1C(=O)O (stereo not drawn) [Compound 115] | C (Ymin ≥ 70%) | B (50% ≤ Ymin < 70%)
Cc1c(Oc2ccc(CCCCN3CCN(c4cc5c(cc4F)C(=O)N(C4CCC(=O)NC4=O)C5=O)CC3)cc2)cccc1-c1ccc(N2CCc3cccc(C(=O)Nc4nc5ccccc5s4)c3C2)nc1C(=O)O (stereo not drawn) [Compound 117, 6-(8-(benzo[d]thiazol-2-ylcarbamoyl)-3,4-dihydroisoquinolin-2(1H)-yl)-3-(3-(4-(4-(4-(2-(2,6-dioxopiperidin-3-yl)-6-fluoro-1,3-dioxoisoindolin-5-yl)piperazin-1-yl)butyl)phenoxy)-2-methylphenyl)picolinic acid] | B (50% ≤ Ymin < 70%) | B (50% ≤ Ymin < 70%)
Cc1c(OCCCC2CCN(CCN3CCN(c4cc5c(cc4F)C(=O)N(C4CCC(=O)NC4=O)C5=O)CC3)CC2)cccc1-c1ccc(N2CCc3cccc(C(=O)Nc4nc5ccccc5s4)c3C2)nc1C(=O)O (stereo not drawn) [Compound 118, 6-(8-(benzo[d]thiazol-2-ylcarbamoyl)-3,4-dihydroisoquinolin-2(1H)-yl)-3-(3-(3-(1-(2-(4-(2-(2,6-dioxopiperidin-3-yl)-6-fluoro-1,3-dioxoisoindolin-5-yl)piperazin-1-yl)ethyl)piperidin-4-yl)propoxy)-2-methylphenyl)picolinic acid] | – | A (Ymin < 50%)
Cc1c(Oc2ccc(CCCC(=O)N3CCN(c4cc5c(cc4F)C(=O)N(C4CCC(=O)NC4=O)C5=O)CC3)cc2)cccc1-c1ccc(N2CCc3cccc(C(=O)Nc4nc5ccccc5s4)c3C2)nc1C(=O)O (stereo not drawn) [Compound 119, 6-(8-(benzo[d]thiazol-2-ylcarbamoyl)-3,4-dihydroisoquinolin-2(1H)-yl)-3-(3-(4-(4-(4-(2-(2,6-dioxopiperidin-3-yl)-6-fluoro-1,3-dioxoisoindolin-5-yl)piperazin-1-yl)-4-oxobutyl)phenoxy)-2-methylphenyl)picolinic acid] | C (Ymin ≥ 70%) | B (50% ≤ Ymin < 70%)

The remaining lines, values ahead:

Ymin (6 h) | Ymin (24 h) | SMILES
B (50% ≤ Ymin < 70%) | – | Cc1c(OCCCN2CCN(c3cc4c(cc3F)C(=O)N(C3CCC(=O)NC3=O)C4=O)CC2)cccc1-c1ccc(N2CCc3cccc(C(=O)Nc4nc5ccccc5s4)c3C2)nc1C(=O)O (stereo not drawn) [Compound 101]
B (50% ≤ Ymin < 70%) | B (50% ≤ Ymin < 70%) | Cc1c(OCCCCCCCN2CCN(c3cc4c(cc3F)C(=O)N(C3CCC(=O)NC3=O)C4=O)CC2)cccc1-c1ccc(N2CCc3cccc(C(=O)Nc4nc5ccccc5s4)c3C2)nc1C(=O)O (stereo not drawn) [Compound 104, 6-(8-(benzo[d]thiazol-2-ylcarbamoyl)-3,4-dihydroisoquinolin-2(1H)-yl)-3-(3-((7-(4-(2-(2,6-dioxopiperidin-3-yl)-6-fluoro-1,3-dioxoisoindolin-5-yl)piperazin-1-yl)heptyl)oxy)-2-methylphenyl)picolinic acid]
A (Ymin < 50%) | – | Cc1c(OCCCCCCCCCN2CCN(c3cc4c(cc3F)C(=O)N(C3CCC(=O)NC3=O)C4=O)CC2)cccc1-c1ccc(N2CCc3cccc(C(=O)Nc4nc5ccccc5s4)c3C2)nc1C(=O)O (stereo not drawn) [Compound 105]
B (50% ≤ Ymin < 70%) | – | Cc1c(OCCC2CCN(CC(=O)N3CCN(c4cc5c(cc4F)C(=O)N(C4CCC(=O)NC4=O)C5=O)CC3)CC2)cccc1-c1ccc(N2CCc3cccc(C(=O)Nc4nc5ccccc5s4)c3C2)nc1C(=O)O (stereo not drawn) [Compound 106, 6-[8-(1,3-Benzothiazol-2-ylcarbamoyl)-3,4-dihydro-1H-isoquinolin-2-yl]-3-[3-[2-[1-[2-[4-[2-(2,6-dioxo-3-piperidyl)-6-fluoro-1,3-dioxo-isoindolin-5-yl]piperazin-1-yl]-2-oxo-ethyl]-4-piperidyl]ethoxy]-2-methyl-phenyl]pyridine-2-carboxylic acid]
B (50% ≤ Ymin < 70%) | – | Cc1c(OCCCCCCCCCCCN2CCN(c3cc4c(cc3F)C(=O)N(C3CCC(=O)NC3=O)C4=O)CC2)cccc1-c1ccc(N2CCc3cccc(C(=O)Nc4nc5ccccc5s4)c3C2)nc1C(=O)O (stereo not drawn) [Compound 107]
B (50% ≤ Ymin < 70%) | – | Cc1c(OCCCCCCCCC(=O)N2CCN(c3cc4c(cc3F)C(=O)N(C3CCC(=O)NC3=O)C4=O)CC2)cccc1-c1ccc(N2CCc3cccc(C(=O)Nc4nc5ccccc5s4)c3C2)nc1C(=O)O (stereo not drawn) [Compound 109]
B (50% ≤ Ymin < 70%) | – | Cc1c(OCCCCCCCC(=O)N2CCN(c3cc4c(cc3F)C(=O)N(C3CCC(=O)NC3=O)C4=O)CC2)cccc1-c1ccc(N2CCc3cccc(C(=O)Nc4nc5ccccc5s4)c3C2)nc1C(=O)O (stereo not drawn) [Compound 114]
– | A (Ymin < 50%) | Cc1c(OCCC2CCN(CCN3CCN(c4cc5c(cc4F)C(=O)N(C4CCC(=O)NC4=O)C5=O)CC3)CC2)cccc1-c1ccc(N2CCc3cccc(C(=O)Nc4nc5ccccc5s4)c3C2)nc1C(=O)O (stereo not drawn) [Compound 116, 6-[8-(1,3-benzothiazol-2-ylcarbamoyl)-3,4-dihydro-1H-isoquinolin-2-yl]-3-[3-[2-[1-[2-[4-[2-(2,6-dioxo-3-piperidyl)-6-fluoro-1,3-dioxo-isoindolin-5-yl]piperazin-1-yl]ethyl]-4-piperidyl]ethoxy]-2-methyl-phenyl]pyridine-2-carboxylic acid]
